One assay deals with L1210. The experiment in a line: The compound was evaluated for cytotoxicity against L1210 cell line. Format: functional, cell-based. The conditions noted are these: Mus musculus.
The test system of assay [1] is A549. Nature of the assay: The compound was evaluated for cytotoxicity against A549 cell line. Format: functional, cell-based. As to conditions: Homo sapiens.
The test system of assay [2] is A549. Nature of the assay: Cytotoxicity of compound in synergy in BCNU (10 uM) against A549 cell line. Format: functional, Homo sapiens.
Assay [3] has as its system A549. The experiment in a line: Cytotoxicity of compound in synergy in 94% BCNU (10 uM) against A549 cell line. Format: functional, Homo sapiens.

Experimental findings from ChEMBL document CHEMBL1134141, “Diaminopurine-acridine heterodimers for specific recognition of abasic site containing DNA. Influence on the biological activity of the position of the linker on the purine ring” (Bioorg Med Chem Lett, 2001) are described below.

Turning to `COc1ccc2nc3cc(Cl)ccc3c(NCCCC/N=C(\N)NCCCNc3[nH]c(N)nc4ncnc3-4)c2c1`, the values for the IC50 in the assay on L1210 and with A549 [1] were greater than 100 µM and 5 µM, respectively.
Consider `COc1ccc2nc3cc(Cl)ccc3c(NCCCC/N=C(\N)NCCCNc3nc(N)c4[nH]cnc4n3)c2c1`, for which the IC50 with L1210 was found to be 36 µM; in the assay on A549 [1], 5 µM.
For `COc1ccc2nc3cc(Cl)ccc3c(NCCCC/N=C(\N)NCCCn3cnc4c(N)nc(N)nc43)c2c1`, the Synergy in the assay on A549 [2] came out at 16%. The 50% inhibitory concentration (IC50) in the assay on L1210 is 60 µM; with A549 [1], 6.5 µM.
With `COc1ccc2nc3cc(Cl)ccc3c(NCCCN(CCCN(CCn3cnc4c(N)ncnc43)C(=N)N)C(=N)N)c2c1`, the half-inhibitory concentration (IC50) in the assay with L1210 is 33 µM; in the assay on A549 [1], 10 µM. Besides, the Synergy in the assay on A549 [3] worked out at 94%.

What is called IC50 is the concentration that inhibits the measured activity by half. The low end stands for greater potency in that assay, the high end for weaker potency in that assay.
